Data set [1] in a line: Photoinitiator activity by photo-DSC. On the procedure:
The activity of the photoinitiators was measured by means of photo-DSC (Differential Scanning Calorimetry) measurements on a DSC-50 device from Shimadzu, wherein the samples were irradiated alternatively with different dental lamps (Astalis 3: halogen lamp, wavelength range 400-500 nm, intensity 530 mW/cm^2; Bluephase C8: LED, wavelength range 430-490 nm, intensity 1100 mW/cm^2; Ivoclar Vivadent AG). The activity is characterized by the time of peak maximum (tmax), the polymerization rate (RP) which corresponds to the peak height, and the double bond conversion (DBC). The respective photoinitiators were dissolved in a resin mixture of D3MA:UDMA:bis-GMA=1:1:1 and then measured in an aluminum crucible by means of DSC. […]

A short description of data set [2]: Absorption maximum (UV-VIS). The settings on record: own acylgermanium photoinitiators. Type of data set: physicochemical.
The conditions of data set [3]: known comparison photoinitiators; cited from earlier work.
Where [4] appears, read: Astralis 3 lamp (400-500 nm), 0.022 mmol PI per gram of resin.
The mark [5] stands for this setting: Bluephase C8 lamp (430-490 nm), 0.022 mmol PI per gram of resin.

Like-named read-outs stand apart in the source and are kept apart here.

As for `C[CH2][Ge]([CH2]C)([C](=O)c1ccccc1)[C](=O)c1ccccc1` [Bis-AG, bisbenzoyldiethylgermanium], the “reactivity compared with camphorquinone/amine” value in data set [1] (15-fold dilution of the initiator) is listed as “comparable with camphorquinone/amine”. The DBC amounted to 84% in data set [1] (setting [4]), 72% in data set [1] (setting [5]), 56% in data set [1] (PI concentration 0.0014 mmol/g) and 66% in data set [1] (PI concentration 0.0055 mmol/g). Moreover, the “Rp × 10^−3” value in data set [1] (setting [4]) is 99.2 mol/(l × s); in data set [1] (setting [5]) it was 98.5 mol/(l × s); in data set [1] (PI concentration 0.0014 mmol/g), 61.0 mol/(l × s); in data set [1] (PI concentration 0.0055 mmol/g) it was 85.6 mol/(l × s). Moreover, the tmax in data set [1] (setting [4]) was determined as 7.8 s; in data set [1] (setting [5]), 7.8 s; in data set [1] (PI concentration 0.0014 mmol/g) it was 12 s; in data set [1] (PI concentration 0.0055 mmol/g), 9 s. In addition, in data set [1] (D3MA:UDMA:bis-GMA=1:1:1), the “curing time compared with campherquinone/amine” value was “halved”. Further, the “polymerization rate (Rp) relative to camphorquinone in combination with an amine accelerator” value in data set [1] (same formulation, D3MA:UDMA:bis-GMA=1:1:1) was “almost double”. For the same molecule, the absorption maximum in data set [2] is recorded as 418.5 nm.

In data set [2], `O=[C](c1ccccc1)[Ge]1([C](=O)c2ccccc2)[CH2]CCC[CH2]1` [Example 9, 1,1-bisbenzoyl-germinane] displayed an absorption maximum of 418.1 nm.

For the molecule `Cc1cc(C)c(C(=O)P(=O)(C(=O)c2c(C)cc(C)cc2C)c2ccccc2)c(C)c1` [Irg 819, bis(2,4,6-trimethylbenzoyl)phenylphosphine oxide, reference compound], the DBC in data set [1] (setting [4]) came to 59%; in data set [1] (setting [5]) it was 45%; in data set [1] (PI concentration 0.0014 mmol/g), 42%; in data set [1] (PI concentration 0.0055 mmol/g) it was 48%. Besides, the “Rp × 10^−3” value in data set [1] (setting [4]) was 67.5 mol/(l × s); in data set [1] (setting [5]), 43.5 mol/(l × s); in data set [1] (PI concentration 0.0014 mmol/g), 30.4 mol/(l × s); in data set [1] (PI concentration 0.0055 mmol/g) it was 48.3 mol/(l × s). The tmax in data set [1] (setting [4]) amounted to 11 s; in data set [1] (setting [5]) it was 17 s; in data set [1] (PI concentration 0.0014 mmol/g), 23 s; in data set [1] (PI concentration 0.0055 mmol/g) it was 14 s. Further, in data set [3], the absorption maximum is reported as 397 nm.

As to `[CH3][Ge]([CH3])([CH3])[C](=O)c1ccccc1` [Mono-AG, benzoyltrimethylgermanium], the DBC was found to be 56% in data set [1] (setting [4]), 49% in data set [1] (setting [5]), 30% in data set [1] (PI concentration 0.0014 mmol/g) and 48% in data set [1] (PI concentration 0.0055 mmol/g). Besides, the “Rp × 10^−3” value in data set [1] (setting [4]) is given as 51.0 mol/(l × s); in data set [1] (setting [5]), 48.3 mol/(l × s); in data set [1] (PI concentration 0.0014 mmol/g), 16.4 mol/(l × s); in data set [1] (PI concentration 0.0055 mmol/g) it was 36.2 mol/(l × s). The tmax in data set [1] (setting [4]) is recorded as 16 s; in data set [1] (setting [5]), 16 s; in data set [1] (PI concentration 0.0014 mmol/g) it was 52 s; in data set [1] (PI concentration 0.0055 mmol/g), 24 s. Further, the absorption maximum in data set [2] was found to be 411.5 nm.

On to `CC12CCC(C(=O)C1=O)C2(C)C` (centres unmarked) [camphorquinone], for which the absorption maximum in data set [3] is on record as 468 nm.

These data come from patent US7605190B2, “Polymerizable compositions with acylgermanium compounds” (Ivoclar Vivadent AG, priority 2006, dated 2009).
